Laboratory results published in ChEMBL document CHEMBL1133120, “Synthesis and evaluation of isothiocyanate-containing derivatives of the delta-opioid receptor antagonist Tyr-Tic-Phe-Phe (TIPP) as potential affinity labels for delta-opioid receptors” (J Med Chem, 2000).
Where a SMILES comes first, the peptide text is derived from it. [ ]: non-standard residue; d: D form. Phe(4-NH2) = Nc1ccc(C[C@H](N)C(=O)O)cc1; Tic = O=C(O)[C@@H]1Cc2ccccc2CN1

Experiments:
Mu-type opioid receptor = Mu-type opioid receptor (Rattus norvegicus, UniProt P33535); experiment: Binding assay evaluated using DAMGO radioligand in CHO cells transfected with rat Opioid receptor mu 1; type: cell-based
Mu-type opioid receptor, sequence (P33535 whole entry): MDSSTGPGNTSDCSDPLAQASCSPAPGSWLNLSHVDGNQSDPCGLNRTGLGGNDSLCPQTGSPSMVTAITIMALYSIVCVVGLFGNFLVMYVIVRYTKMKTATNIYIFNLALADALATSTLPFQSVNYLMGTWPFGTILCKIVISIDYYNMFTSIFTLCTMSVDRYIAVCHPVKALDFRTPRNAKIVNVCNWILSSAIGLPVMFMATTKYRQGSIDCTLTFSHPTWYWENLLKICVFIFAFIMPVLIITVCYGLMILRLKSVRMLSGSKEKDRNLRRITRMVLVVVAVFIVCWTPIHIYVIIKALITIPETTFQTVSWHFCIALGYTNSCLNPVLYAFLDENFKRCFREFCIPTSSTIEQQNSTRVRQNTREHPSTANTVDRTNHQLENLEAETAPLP

[1] = biological target: Delta-type opioid receptor (Mus musculus, UniProt P32300); experiment: Binding assay evaluated using […] radioligand in CHO cells transfected with mouse Opioid receptor delta 1; type: cell-based
Delta-type opioid receptor, sequence (P32300 whole entry): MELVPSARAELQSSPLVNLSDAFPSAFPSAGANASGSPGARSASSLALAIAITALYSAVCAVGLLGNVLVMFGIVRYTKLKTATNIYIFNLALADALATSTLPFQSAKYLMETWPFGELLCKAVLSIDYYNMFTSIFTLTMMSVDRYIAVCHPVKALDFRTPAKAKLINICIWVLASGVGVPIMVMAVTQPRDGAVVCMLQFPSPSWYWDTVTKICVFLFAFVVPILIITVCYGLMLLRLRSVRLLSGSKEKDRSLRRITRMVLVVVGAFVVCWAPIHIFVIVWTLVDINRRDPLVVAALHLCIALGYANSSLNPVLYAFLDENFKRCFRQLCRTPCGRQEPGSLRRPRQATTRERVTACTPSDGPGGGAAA

SMILES	IC50 (Mu-type opioid receptor) [nM]	IC50 [1] [nM]
N[C@@H](Cc1ccc(O)cc1)C(=O)N1Cc2ccccc2C[C@H]1C(=O)N[C@@H](Cc1ccc(N=C=S)cc1)C(=O)N[C@@H](Cc1ccccc1)C(=O)O	> 10000	12.4
N[C@@H](Cc1ccc(O)cc1)C(=O)N1Cc2ccccc2C[C@H]1C(=O)N[C@@H](Cc1ccccc1)C(=O)N[C@@H](Cc1ccc(N=C=S)cc1)C(=O)O	> 10000	5.4
N[C@@H](Cc1ccc(O)cc1)C(=O)N1Cc2ccccc2C[C@H]1C(=O)N[C@@H](Cc1ccccc1)C(=O)N[C@@H](Cc1ccccc1)C(=O)O (H-Y[Tic]FF-OH)	22700	5.8
Nc1ccc(C[C@H](NC(=O)[C@H](Cc2ccccc2)NC(=O)[C@@H]2Cc3ccccc3CN2C(=O)[C@@H](N)Cc2ccc(O)cc2)C(=O)O)cc1 (H-Y[Tic]F[Phe(4-NH2)]-OH)	> 10000	11.8
Nc1ccc(C[C@H](NC(=O)[C@@H]2Cc3ccccc3CN2C(=O)[C@@H](N)Cc2ccc(O)cc2)C(=O)N[C@@H](Cc2ccccc2)C(=O)O)cc1 (H-Y[Tic][Phe(4-NH2)]F-OH)	> 10000	87.7
